For 34 compounds, inhibition results are on record in patent US20080255192A1, “Methods and Compositions for Selectin Inhibition” (Wyeth, priority 2007, published 2008).

Each structure is given as a SMILES string.

The target in this assay is T1, P-selectin/PSGL-1 interaction (Homo sapiens, UniProt P16109).
T1 construct: comprised of the lectin and epidermal growth factor-like (EGF) domains expressed in CHO cells; made in house; host or cells: CHO cells (P-LE)
T1 sequence (P16109 42-198): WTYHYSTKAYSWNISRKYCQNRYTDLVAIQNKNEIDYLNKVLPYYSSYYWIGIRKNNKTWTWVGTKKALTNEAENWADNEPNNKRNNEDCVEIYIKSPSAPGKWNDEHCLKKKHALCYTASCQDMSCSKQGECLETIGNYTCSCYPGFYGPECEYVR
Nature of the assay: Biacore P-Selectin/PSGL-1 Inhibition Assay (surface plasmon resonance). Type of assay: binding. To be noted: 250 uM test compound, 500 nM P.LE, immobilized PSGL-1 19ek, 10% DMSO, pH 7.4. The method in brief: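 Biotinylated monomeric human PSGL-1 "19ek" on streptavidin chip (600–700 RU); compounds preincubated 1 h, then mixed with 500 nM P-LE (lectin-EGF, CHO-expressed) at 250 or 500 μM compound, 10% DMSO, HEPES buffer with 1 mM CaCl2/MgCl2, pH 7.4. SPR at 25 °C; percent binding inhibition from double-referenced signals.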
A general note: In SPR one partner is held on a chip, and binding of the other changes the refractive index at the surface.
As for `CCc1cccc2c(C(=O)O)c(O)c(C3(c4ccc(C(F)(F)F)cc4)CC3)nc12` [Compound 87, 8-ethyl-3-hydroxy-2-(1-(4-(trifluoromethyl)phenyl)cyclopropyl)quinoline-4-carboxylic acid], at 250 µM the inhibition was 61%.
`CC(C)c1cccc2c(C(=O)O)c(O)c(C3(c4ccc(C(F)(F)F)cc4)CC3)nc12` [Compound 88, 3-hydroxy-8-isopropyl-2-(1-(4-(trifluoromethyl)phenyl)cyclopropyl)quinoline-4-carboxylic acid] gave an inhibition at 250 µM of 34%.
`CCc1ccc2c(C(=O)O)c(O)c(C3(c4ccc(C(F)(F)F)cc4)CC3)nc2c1` [Compound 89, 7-ethyl-3-hydroxy-2-(1-(4-(trifluoromethyl)phenyl)cyclopropyl)quinoline-4-carboxylic acid] registered an inhibition at 250 µM of 10%.
`O=C(O)c1c(O)c(C2(c3ccc(C(F)(F)F)cc3)CC2)nc2ccc(OC(F)(F)F)cc12` [Compound 90, 3-hydroxy-6-(trifluoromethoxy)-2-(1-(4-(trifluoromethyl)phenyl)cyclopropyl)quinoline-4-carboxylic acid]: 250 µM produced 47% inhibition.
For the compound `O=C(O)c1c(O)c(C2(c3ccc(C(F)(F)F)cc3)CC2)nc2c(-c3ccsc3)cccc12` [Compound 91, 3-hydroxy-8-(thiophen-3-yl)-2-(1-(4-(trifluoromethyl)phenyl)cyclopropyl)quinoline-4-carboxylic acid], the inhibition at 250 µM was no more than 10%.
`O=C(O)c1c(O)c(C2(c3ccc(C(F)(F)F)cc3)CC2)nc2c(-c3ccccc3)cccc12` [Compound 92, 3-hydroxy-8-phenyl-2-(1-(4-(trifluoromethyl)phenyl)cyclopropyl)quinoline-4-carboxylic acid]: the inhibition at 250 µM was no more than 10%.
In the case of `O=C(O)c1c(O)c(C2(c3ccc(C(F)(F)F)cc3)CC2)nc2c3c(ccc12)CCCC3` [Compound 93, 3-hydroxy-2-(1-(4-(trifluoromethyl)phenyl)cyclopropyl)-7,8,9,10-tetrahydrobenzo[h]quinoline-4-carboxylic acid] it was 33%; in that of `Cc1cc(C(F)(F)F)c2nc(C3(c4ccc(Cl)cc4)CC3)c(O)c(C(=O)O)c2c1` [Compound 94, 2-(1-(4-chlorophenyl)cyclopropyl)-3-hydroxy-6-methyl-8-(trifluoromethyl)quinoline-4-carboxylic acid], 65%.
On to `O=C(O)c1c(O)c(C2(c3ccc(Cl)cc3)CC2)nc2c(C(F)(F)F)cc(Cl)cc12` [Compound 95, 6-chloro-2-(1-(4-chlorophenyl)cyclopropyl)-3-hydroxy-8-(trifluoromethyl)quinoline-4-carboxylic acid], for which the inhibition at 250 µM is no more than 10%.
In the case of `O=C(O)c1c(O)c(C2(c3ccc(Cl)cc3)CC2)nc2c(C(F)(F)F)cc(-c3ccccc3)cc12` [Compound 96, 2-(1-(4-chlorophenyl)cyclopropyl)-3-hydroxy-6-phenyl-8-(trifluoromethyl)quinoline-4-carboxylic acid] it was no more than 10%; in that of `Cc1cc(C(F)(F)F)cc2c(C(=O)O)c(O)c(C3(c4ccc(Cl)cc4)CC3)nc12` [Compound 97, 2-(1-(4-chlorophenyl)cyclopropyl)-3-hydroxy-8-methyl-6-(trifluoromethyl)quinoline-4-carboxylic acid], 40%.
In the case of `CCc1cc(C(F)(F)F)c2nc(C3(c4ccc(Cl)cc4)CC3)c(O)c(C(=O)O)c2c1` [Compound 98], the inhibition at 250 µM is no more than 10%.
In the case of `CCc1cc(C(F)(F)F)cc2c(C(=O)O)c(O)c(C3(c4ccc(Cl)cc4)CC3)nc12` [Compound 99, 2-(1-(4-chlorophenyl)cyclopropyl)-8-ethyl-3-hydroxy-6-(trifluoromethyl)quinoline-4-carboxylic acid], the inhibition at 250 µM was no more than 10%.
As to `O=C(O)c1c(O)c(C2(c3ccc(Cl)cc3)CC2)nc2c(-c3ccccc3)cc(C(F)(F)F)cc12` [Compound 100, 2-(1-(4-chlorophenyl)cyclopropyl)-3-hydroxy-8-phenyl-6-(trifluoromethyl)quinoline-4-carboxylic acid], the inhibition at 250 µM was no more than 10%.
In turn, `Cc1cc(C(F)(F)F)c2nc(C3(c4ccccc4)CC3)c(O)c(C(=O)O)c2c1` [Compound 101, 3-hydroxy-6-methyl-2-(1-phenylcyclopropyl)-8-(trifluoromethyl)quinoline-4-carboxylic acid] gave an inhibition at 250 µM of 40%.
In the case of `O=C(O)c1c(O)c(C2(c3ccccc3)CC2)nc2c(C(F)(F)F)cc(-c3ccccc3)cc12` [Compound 102, 3-hydroxy-6-phenyl-2-(1-Phenylcyclopropyl)-8-(trifluoromethyl)quinoline-4-carboxylic acid] it was no more than 10%; in that of `O=C(O)c1c(O)c(C2(c3ccc(Cl)cc3)CC2)nc2c(C(F)(F)F)cc(Br)cc12` [Compound 103, 6-bromo-2-(1-(4-chlorophenyl)cyclopropyl)-3-hydroxy-8-(trifluoromethyl)quinoline-4-carboxylic acid], no more than 10%; in that of `CCc1cc(C(F)(F)F)c2nc(C3(c4ccccc4)CC3)c(O)c(C(=O)O)c2c1` [Compound 104, 6-ethyl-3-hydroxy-2-(1-phenylcyclopropyl)-8-(trifluoromethyl)quinoline-4-carboxylic acid], 40%.
In the case of `O=C(O)c1c(O)c(C2(c3ccc(Cl)cc3)CC2)nc2c(C(F)(F)F)cc(C(F)(F)F)cc12` [Compound 105, 3-hydroxy-2-(1-(4-chlorophenyl)cyclopropyl)-6,8-bis(trifluoromethyl)quinoline-4-carboxylic acid] it was no more than 10%; in that of `O=C(O)c1c(O)c(C2(c3ccccc3)CC2)nc2c(C(F)(F)F)cc(C(F)(F)F)cc12` [Compound 106], 41%; in that of `O=C(O)c1c(O)c(C2(c3ccccc3)CC2)nc2c(C(F)(F)F)cc(Br)cc12` [Compound 107, 6-bromo-3-hydroxy-2-(1-phenylcyclopropyl)-8-(trifluoromethyl)quinoline-4-carboxylic acid], 41%.
`O=C(O)c1c(O)c(C2(c3ccc(Cl)cc3)CC2)nc2c(C(=O)O)cccc12` [Compound 108, 2-(1-(4-chlorophenyl)cyclopropyl)-3-hydroxyquinoline-4,8-dicarboxylic acid] came in with an inhibition at 250 µM of 12%.
In the case of `O=C(O)c1c(O)c(C2(c3ccc(Cl)cc3)CC2)nc2c(C3CC3)cccc12` [Compound 109, 2-[1-(4-chloro-phenyl)-cyclopropyl]-8-cyclopropyl-3-hydroxy-quinoline-4-carboxylic acid] it was 57%; in that of `O=C(O)c1c(O)c(C2(c3ccccc3)CC2)nc2c(C3CC3)cccc12` [Compound 110, 8-cyclopropyl-3-hydroxy-2-(1-phenyl-cyclopropyl)-quinoline-4-carboxylic acid], 13%.
As for `O=C(O)c1c(O)c(CC2(c3ccccc3)CC2)nc2c(C(F)(F)F)cccc12` [Compound 111, 3-hydroxy-2-(1-phenyl-cyclopropylmethyl)-8-trifluoromethyl-quinoline-4-carboxylic acid], at 250 µM the inhibition was 46%.
In the case of `O=C(O)c1c(O)c(C2(Cc3ccccc3)CC2)nc2c(C(F)(F)F)cccc12` [Compound 112, 2-(1-benzyl-cyclopropyl)-3-hydroxy-8-trifluoromethyl-quinoline-4-carboxylic acid], the inhibition at 250 µM was found to be 43%.
In the case of `Cc1ccc(C2(c3nc4c(C)c(C)ccc4c(C(=O)O)c3O)CC2)cc1` [Compound 113, 3-hydroxy-7,8-dimethyl-2-(1-p-tolyl-cyclopropyl)-quinoline-4-carboxylic acid] it was 24%.
On to `CC(C)(c1ccccc1)c1nc2c3c(ccc2c(C(=O)O)c1O)CCCC3` [Compound 114, 3-hydroxy-2-(2-phenylpropan-2-yl)-7,8,9,10-tetrahydrobenzo[h]quinoline-4-carboxylic acid], for which the inhibition at 250 µM came to 69%.
In the case of `Cc1ccc2c(C(=O)O)c(O)c(C(C)(C)c3ccccc3)nc2c1C` [Compound 115, 3-hydroxy-7,8-dimethyl-2-(2-phenylpropan-2-yl)quinoline-4-carboxylic acid] it was 60%; in that of `CC(C)c1cccc2c(C(=O)O)c(O)c(C(C)(C)c3ccccc3)nc12` [Compound 116, 3-hydroxy-8-isopropyl-2-(2-phenylpropan-2-yl)quinoline-4-carboxylic acid], 68%.
On to `CC(C)(c1ccccc1)c1nc2c(C(F)(F)F)cccc2c(C(=O)O)c1O` [Compound 117, 3-hydroxy-2-(2-phenylpropan-2-yl)-8-(trifluoromethyl)quinoline-4-carboxylic acid], for which the inhibition at 250 µM came out at 55%.
Compound `CC(C)c1cccc2c(C(=O)O)c(O)c(C(C)(C)c3ccc(Cl)cc3)nc12` [Compound 118, 2-(2-(4-Chlorophenyl)propan-2-yl)-3-hydroxy-8-isopropylquinoline-4-carboxylic acid] had an inhibition at 250 µM of no more than 10%.
`CC(C)(c1ccc(Cl)cc1)c1nc2c(C(F)(F)F)cccc2c(C(=O)O)c1O` [Compound 119, 2-(2-(4-Chlorophenyl)propan-2-yl)-3-hydroxy-8-(trifluoromethyl)quinoline-4-carboxylic acid] showed an inhibition at 250 µM of no more than 10%.
In turn, `CC(C)(c1ccc(Cl)cc1)c1nc2c3c(ccc2c(C(=O)O)c1O)CCCC3` [Compound 120, 2-(2-(4-Chlorophenyl)propan-2-yl)-3-hydroxy-7,8,9,10-tetrahydrobenzo[h]quinoline-4-carboxylic acid] gave an inhibition at 250 µM of no more than 10%.

The inhibition is the change of the read-out against control, counted positive when it falls. Higher therefore signals strong suppression.
